# pIC50: −log10 of the molar value.
# Legend:
# [1] = Protein binding in rat plasma at 10 uM at pH 7.4; type: ADME, cell-free; settings: read-out: PPB (converted)
# [2] = tested on: HMEC; assay: cells; settings: Homo sapiens
# Description: Antiproliferative activity against HMVEC
# [3] = molecular target: T1, Methionine aminopeptidase 2 (Homo sapiens, UniProt P50579); assay: Inhibition of MetAP2
# [4] = molecular target: Aminopeptidase N (Homo sapiens, UniProt P15144); assay: Inhibition of AP-M
# [5] = molecular target: Methionine aminopeptidase (Pyrococcus furiosus (strain ATCC 43587 / DSM 3638 / JCM 8422 / Vc1), UniProt P56218); assay: Inhibition of Pyrococcus furiosus MetAP
# [6] = molecular target: Methionine aminopeptidase 1 (Homo sapiens, UniProt P53582); assay: Inhibition of MetAP1
# [7] = Inhibition of AP; design: species or system Homo sapiens
# [8] = molecular target: Xaa-Pro aminopeptidase 1 (Homo sapiens, UniProt Q9NQW7); assay: Inhibition of AP1
# [9] = molecular target: T1, Methionine aminopeptidase 2; assay: Inhibition of MetAP2 in presence of 40 mg/ml human serum albumin
# T1 sequence (P50579 whole entry): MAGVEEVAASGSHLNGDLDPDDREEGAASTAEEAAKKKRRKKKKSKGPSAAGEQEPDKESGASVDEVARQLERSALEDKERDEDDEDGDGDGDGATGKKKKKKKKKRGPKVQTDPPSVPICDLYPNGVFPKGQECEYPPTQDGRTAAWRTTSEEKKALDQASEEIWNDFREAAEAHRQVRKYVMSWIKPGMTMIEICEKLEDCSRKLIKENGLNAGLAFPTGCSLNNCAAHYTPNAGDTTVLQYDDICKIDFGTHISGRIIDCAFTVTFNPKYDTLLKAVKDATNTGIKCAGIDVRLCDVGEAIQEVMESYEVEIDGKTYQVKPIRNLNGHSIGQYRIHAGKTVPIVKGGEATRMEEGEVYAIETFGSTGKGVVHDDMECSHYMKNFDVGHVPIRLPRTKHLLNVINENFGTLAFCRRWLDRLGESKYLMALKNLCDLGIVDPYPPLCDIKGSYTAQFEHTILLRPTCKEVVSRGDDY
# Methionine aminopeptidase, sequence (P56218 whole entry): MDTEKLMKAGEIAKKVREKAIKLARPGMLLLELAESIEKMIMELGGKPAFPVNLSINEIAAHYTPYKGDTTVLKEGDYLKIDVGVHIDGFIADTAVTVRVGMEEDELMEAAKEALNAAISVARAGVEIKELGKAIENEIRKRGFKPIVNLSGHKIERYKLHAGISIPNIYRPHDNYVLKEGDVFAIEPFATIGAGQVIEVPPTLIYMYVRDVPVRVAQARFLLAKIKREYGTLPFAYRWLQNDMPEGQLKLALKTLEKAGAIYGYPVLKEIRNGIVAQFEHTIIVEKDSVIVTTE
# Aminopeptidase N, sequence (P15144 whole entry): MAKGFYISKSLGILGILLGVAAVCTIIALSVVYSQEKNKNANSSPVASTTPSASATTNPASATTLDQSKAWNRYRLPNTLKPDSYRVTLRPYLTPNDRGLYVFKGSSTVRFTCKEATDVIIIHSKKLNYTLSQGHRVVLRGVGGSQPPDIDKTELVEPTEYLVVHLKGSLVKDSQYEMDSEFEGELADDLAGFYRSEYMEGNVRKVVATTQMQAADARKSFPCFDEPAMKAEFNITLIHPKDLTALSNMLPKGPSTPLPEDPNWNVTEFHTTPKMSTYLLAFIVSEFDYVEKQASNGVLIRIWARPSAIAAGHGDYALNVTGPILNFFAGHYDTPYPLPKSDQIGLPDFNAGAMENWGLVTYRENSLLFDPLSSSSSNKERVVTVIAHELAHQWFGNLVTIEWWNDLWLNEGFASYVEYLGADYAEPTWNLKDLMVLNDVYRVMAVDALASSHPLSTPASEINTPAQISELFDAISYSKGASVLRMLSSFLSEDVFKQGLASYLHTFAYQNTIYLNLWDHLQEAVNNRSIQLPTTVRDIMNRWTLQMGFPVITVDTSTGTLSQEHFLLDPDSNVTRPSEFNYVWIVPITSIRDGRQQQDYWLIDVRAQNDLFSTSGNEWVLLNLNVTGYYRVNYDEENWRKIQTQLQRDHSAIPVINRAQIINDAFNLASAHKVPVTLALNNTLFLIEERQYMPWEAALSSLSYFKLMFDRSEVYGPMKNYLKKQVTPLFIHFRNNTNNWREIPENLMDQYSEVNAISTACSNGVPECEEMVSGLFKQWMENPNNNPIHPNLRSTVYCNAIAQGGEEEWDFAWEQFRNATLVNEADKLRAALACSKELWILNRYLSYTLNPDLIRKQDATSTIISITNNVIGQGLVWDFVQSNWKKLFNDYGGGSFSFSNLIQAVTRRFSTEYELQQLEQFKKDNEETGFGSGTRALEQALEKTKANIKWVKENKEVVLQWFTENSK
# Xaa-Pro aminopeptidase 1, sequence (Q9NQW7 whole entry): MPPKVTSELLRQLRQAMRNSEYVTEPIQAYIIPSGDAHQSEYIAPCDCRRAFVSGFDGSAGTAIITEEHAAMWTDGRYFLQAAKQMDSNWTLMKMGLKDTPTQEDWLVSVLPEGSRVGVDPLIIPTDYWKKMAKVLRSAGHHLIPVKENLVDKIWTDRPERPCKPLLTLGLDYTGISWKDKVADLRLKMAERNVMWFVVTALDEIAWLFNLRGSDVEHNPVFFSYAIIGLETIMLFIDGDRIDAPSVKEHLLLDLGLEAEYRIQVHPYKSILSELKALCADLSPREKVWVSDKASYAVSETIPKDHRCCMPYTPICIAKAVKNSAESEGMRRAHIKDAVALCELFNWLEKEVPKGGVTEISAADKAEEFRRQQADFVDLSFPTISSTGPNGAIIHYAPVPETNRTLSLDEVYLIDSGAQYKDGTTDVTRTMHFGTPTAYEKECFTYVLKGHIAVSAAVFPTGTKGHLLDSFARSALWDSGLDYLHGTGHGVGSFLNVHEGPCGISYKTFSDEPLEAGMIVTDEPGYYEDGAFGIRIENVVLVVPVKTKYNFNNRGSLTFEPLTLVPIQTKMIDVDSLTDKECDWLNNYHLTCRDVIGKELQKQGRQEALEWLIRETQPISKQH
fraction unbound at 10 µM [1],pIC50 [2],SMILES,other results
0.008,6.30,O=C(O)c1c(NS(=O)(=O)c2ccc(F)cc2)ccc2ccccc12,
,6.40,Cc1cc(C)c(NS(=O)(=O)c2ccccc2)c(C(=O)O)c1,
,4.00,CCCCc1ccc(NS(=O)(=O)c2ccccc2)c(C(=O)O)c1,
,6.89,C[C@H]1CCCc2ccc(NS(=O)(=O)c3ccc(F)cc3)c(C(=O)O)c21,
0.002,6.30,O=C(O)c1c(NS(=O)(=O)c2ccccc2)ccc2ccccc12,pIC50 [3]: 7.72; pIC50 [4]: < 4.00; pIC50 [5]: < 4.00; pIC50 [6]: 4.33; pIC50 [7]: < 4.00; pIC50 [8]: < 4.00; pIC50 [9]: 5.42
,6.74,O=C(O)c1c(NS(=O)(=O)c2ccc(F)cc2)ccc2c1CCCC2,
,4.22,CCCc1ccc(NS(=O)(=O)c2ccccc2)c(C(=O)O)c1,
,5.70,O=C(O)c1cc(Br)ccc1NS(=O)(=O)c1cccc2nsnc12,pIC50 [3]: 5.41; pIC50 [9]: < 4.00
0.002,5.00,CCc1ccc(NS(=O)(=O)c2ccccc2)c(C(=O)O)c1,
,6.82,CC1=CCCc2ccc(NS(=O)(=O)c3ccc(F)cc3)c(C(=O)O)c21,
,5.52,O=C(O)c1cc(Br)ccc1NS(=O)(=O)c1ccc(Cl)cc1,
0.019,6.52,Cc1ccc(NS(=O)(=O)c2ccc(Cl)cc2)c(C(=O)O)c1,
0.003,7.00,Cc1ccc(NS(=O)(=O)c2ccccc2)c(C(=O)O)c1,

# From ChEMBL document CHEMBL1138906, “Development of sulfonamide compounds as potent methionine aminopeptidase type II inhibitors with antiproliferative properties” (Bioorg Med Chem Lett, 2006)
